The text below walks through data of ChEMBL document CHEMBL1201862, “PubChem BioAssay data set” (2004).

Holding throughout (experiment): growth of human tumour cells (NCI), 48 h
For test [1], the system named is TK-10.
Test [2] concerns MDA-MB-231.
For test [3], the system named is ACHN.
Test [4] deals with SR.
For test [5], the system named is SN12C.
The test system of test [6] is HCC 2998.
For test [7], the system named is SK-MEL-2.
The subject of test [8] is MOLT-4.
For test [9], the system named is NCI/ADR-RES.
Test [10] deals with LOX IMVI.
For test [11], the system named is UACC-62.
In test [12] the test system is CAKI-1.
Test [13] has as its system U-251.
Test [14] concerns SF-295.
Test [15] has as its system MDA-N.
Test [16] relates to SK-MEL-28.
Test [17] relates to SK-OV-3.
Test [18] deals with SF-539.
Test [19] concerns MCF7.
The test system of test [20] is Hs-578T.

The structures appear in SMILES notation.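 Briefly, cells in 96-well plates were exposed to five compound concentrations for 48 h, and endpoints were estimated by linear interpolation. The concentration for 50% growth inhibition is given as GI50.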 Activity calls are given as the source filed them. Rule as the data show it: active = GI50 up to about 1.1 µM and inactive = higher.

`CC1(C)C[C@H]2[C@H](O)C(CO)=C3C(=O)[C@@H](O)[C@]3(C)[C@H]2C1`: the GI50 in [1] was > 100 µM (inactive); in test [2], > 100 µM (inactive); in test [3], > 100 µM (inactive); in test [4] it was 50.2 µM (inactive); in [5], > 100 µM (inactive); in test [6], > 100 µM (inactive). Besides, the GI50 in test [7] was > 100 µM (inactive); in test [8], 17.4 µM (inactive); in test [9], > 100 µM (inactive); in test [10], 44.4 µM (inactive); in test [11], > 100 µM (inactive); in test [12] it was > 100 µM (inactive). For the same compound, the GI50 is > 100 µM (inactive) in [13]; > 100 µM (inactive) in test [14]; 80.2 µM (inactive) in [15]; > 100 µM (inactive) in [16]; > 100 µM (inactive) in test [17]; 48.6 µM (inactive) in test [18]. For the same compound, the GI50 in test [19] was 44.8 µM (inactive).
With `COc1ccccc1Nc1nc2c([nH]1)c(=O)n(C)c(=O)n2C`, the GI50 in [1], in test [2], in test [4], in [5], in [6] and in test [8] was > 10 µM (inactive) throughout. Further, the GI50 in test [10], in test [11], in test [12], in test [14], in test [15] and in [16] was > 10 µM (inactive) in each case. Besides, the GI50 in [17] and in test [19] was > 10 µM (inactive) each time.
As to `Cc1ccc(-c2n[nH]c(=O)n2/N=C\c2ccc([N+](=O)[O-])cc2)cc1`, the GI50 in test [1] is > 100 µM (inactive); in [2], 9.75 µM (inactive); in test [3], > 80.5 µM (inactive); in test [4], 31.8 µM (inactive); in test [5] it was > 100 µM (inactive); in test [6], > 100 µM (inactive). Also, the GI50 is > 100 µM (inactive) in test [7]; > 42.2 µM (inactive) in test [8]; > 100 µM (inactive) in test [9]; > 100 µM (inactive) in test [10]; 60.1 µM (inactive) in test [11]; > 100 µM (inactive) in test [12]. The GI50 is > 100 µM (inactive) in test [13]; > 100 µM (inactive) in test [14]; > 100 µM (inactive) in test [16]; > 100 µM (inactive) in test [17]; 41.1 µM (inactive) in test [20]; > 100 µM (inactive) in [18]. The GI50 in [19] is 99.5 µM (inactive).
For the compound `COCCn1cnc2c(Cl)nc(Nc3ccccc3)nc21`, the GI50 in test [1] is > 100 µM (inactive); in test [2] it was 27.7 µM (inactive); in test [3], 17.9 µM (inactive); in test [4], 26.2 µM (inactive); in test [5] it was 26.4 µM (inactive); in test [6], 17.3 µM (inactive). In addition, the GI50 was 17.7 µM (inactive) in test [7]; 23.3 µM (inactive) in [8]; 39.2 µM (inactive) in test [9]; 17 µM (inactive) in test [10]; 25.6 µM (inactive) in [11]; 32.7 µM (inactive) in test [13]. In addition, the GI50 in [14] was > 100 µM (inactive); in test [16], 36 µM (inactive); in test [17], 37.2 µM (inactive); in [20], 24.1 µM (inactive); in test [18] it was > 100 µM (inactive); in [19] it was 36.4 µM (inactive).
Regarding `CC(C)(C)c1ccc(/C=N/NC(=O)CSCC(=O)N/N=C/c2ccc(C(C)(C)C)cc2)cc1`, the GI50 in test [1] is 5.21 µM (inactive); in test [2], 0.22 µM (active); in test [3], 2.93 µM (inactive); in test [4], 1.7 µM (inactive); in [5], 1.77 µM (inactive); in test [6], 2.73 µM (inactive). The GI50 in test [7] was 2.28 µM (inactive); in test [8] it was 2.12 µM (inactive); in [9], 4.26 µM (inactive); in [11], 16.4 µM (inactive); in test [13], 1.61 µM (inactive); in test [16], 6.17 µM (inactive). The GI50 was 5.61 µM (inactive) in [17], 3.17 µM (inactive) in test [20], 2.12 µM (inactive) in test [18] and 2.28 µM (inactive) in [19].
As for `N#Cc1c(-c2ccc([N+](=O)[O-])cc2)c(C#N)c(=O)n(NS(=O)(=O)c2ccccc2)c1-c1ccccc1`, the GI50 in test [1], in [2], in test [3], in test [5], in test [6] and in [7] was > 100 µM (inactive) in each case. Also, the GI50 in [8], in test [9], in [10], in [11], in test [12] and in test [13] was > 100 µM (inactive) throughout. Besides, the GI50 in test [14], in test [16], in test [17], in test [20], in [18] and in test [19] was > 100 µM (inactive) throughout.
Turning to `Cc1c2c(Cl)c3c(c(Cl)c2c(C)c2c(Cl)c4c(c(Cl)c12)C(c1ccccc1)(c1ccccc1)C4(c1ccccc1)c1ccccc1)C(c1ccccc1)(c1ccccc1)C3(c1ccccc1)c1ccccc1`, the GI50 in [1], in test [2], in test [3], in test [4], in [5] and in [6] was > 100 µM (inactive) in each case. The GI50 in test [7], in [8], in test [9], in test [10], in [11] and in test [12] was > 100 µM (inactive) in each case. Further, the GI50 in test [13], in test [14], in test [15], in test [16], in test [17] and in test [18] was > 100 µM (inactive) throughout. The GI50 in [19] was > 100 µM (inactive).
Turning to `COc1ccc(/C=N/Nc2nc(=S)[nH]c3[nH]ncc23)cc1`, the GI50 in test [1] was 33.1 µM (inactive); in [2], 34.6 µM (inactive); in [3], 43.3 µM (inactive); in test [4], > 100 µM (inactive); in [5], > 100 µM (inactive); in [6] it was 35 µM (inactive). Besides, the GI50 was 45.7 µM (inactive) in [7]; > 100 µM (inactive) in test [8]; > 100 µM (inactive) in test [9]; 33.8 µM (inactive) in test [10]; 31 µM (inactive) in [11]; 32.7 µM (inactive) in test [12]. Further, the GI50 in [13] is 19.1 µM (inactive); in test [14], 40.6 µM (inactive); in test [16], 35.2 µM (inactive); in test [17] it was > 100 µM (inactive); in [20], > 100 µM (inactive); in [18] it was > 100 µM (inactive). Moreover, in [19], the GI50 was 43.5 µM (inactive).
